# Reference: patent US9241936B2, “Use of rupatadine in the manufacture of pharmaceutical composition for treating chronic obstructive pulmonary disease” (BEIJING WEIFENG YIMIN BIO-TECHNOLOGY LIMITED COMPANY, priority 2012, dated 2016)
# Entries after “also recorded” stand apart in the source; their conditions may differ. Like-named read-outs stand apart in the source and are kept apart here.
# Assays:
# [1] = tested on: TLR4 mutant C3H/HeJ mice with emphysema; test: pathological evaluation (HE staining) of mice with emphysema induced by TLR4 mutant; assay type: in vivo; details: i.g. once a day for 4 weeks
# Text: Animals for experiment: C3H/HeN wild type mice on SPF level were purchased from Beijing Vitalriver Experimental Animals Limited Company. TLR4 mutant C3H/HeJ mice were purchased from Institute of model animals, Nanjing University.
# Method: Fed the SPF mice and the TLR4 mutant mice in experimental animal center of Institute of pharmaceutics research, Chinese academy of medical sciences. Provide free diet under constant temperature and humidity. The mice were killed until they were 3 months old.
# Therapy: Grouping and feeding animal models with medicaments.
# HE staining method is also named Hematoxylin-Eosin staining Hematoxylin dye liquor is alkaline, and mainly colors intranuclear chromatin and intracytoplasmic ribosome into bluish violet; Eosin is acidic dye, and mainly colors the components in cytoplasm and extracellular matrix.
# The lung tissues on the right lower lobe was cut, fixed by 4 wt % paraformaldehyde and then embedded by paraffin. The largest cross-section of the paraffin embedding the lung tissue was stained by HE staining method, and the result was shown in FIG. 4.
# histamine or PAF [2] = details: cited from earlier work; for inhibition of blister: dogs, blister by subcutaneous histamine or PAF, rupatadine 0.3-10 mg/kg, oral administration
# histamine H1 receptors [3] = details: cited from earlier work
# PAF [4] = details: read-out: IC50 of platelet aggregation induced by PAF, cited from earlier work
# PAF [5] = details: whole blood of dogs; read-out: IC50 of platelet aggregation induced by PAF; cited from earlier work
# [6] = tested on: smoking-induced COPD mice; test: amount of inflammatory cells in bronchoalveolar lavage fluid of smoking-induced COPD mice; assay type: in vivo, C57BL/6 mice
# Text: Main agents and animals for experiments: Cigarettes used in the experiment, type 3R4F, were purchased from Tobacco Research Center, University of Kentucky, USA. C57BL/6 mice on level SPF used in the experiment (male, aged 6-8 weeks, 16-18 g) were purchased from Institute of Animal, Chinese academy of medical sciences.
# Preparation of COPD animal model: C57BL/6 mice were put in a smoke box and 5 cigarettes were inhaled without filter tip each time. The ratio of smoke to air was 1:6, and the whole flow rate of gas was 150 ml/min. Smoking experiment was conducted 4 times a day, 30 minutes for each time and last for 24 weeks.
# Therapy: grouping and feeding animal models with medicaments. The groups were as table 1:
# The mice were dissected at neck and the weasand was exposed for intubation. The lavage amount of PBS was 0.8 ml and the lavage was conducted 3-5 times. The lavage solution was recycled and centrifuged at 1500 r for 10 minutes at 4° C. The supernate was recycled and kept at −20° C. for the test of cytokines.
# Cells were reselected and precipitated by 1 ml 1% BSA in PBS. 10 μl resuspension solution was taken for calculating the amount of cells and the hematology analyzer was used for analysis. It can be seen from FIG. 1, compared with the sham-operation group, the total number of hemameba (FIG. 1A), monocyte (FIG. 1B), neutrophile granulocyte (FIG. 1C), lymphocyte (FIG. 1D), basophil (FIG. 1E), and eosinophils (FIG. 1F) in bronchoalveolar lavage fluid of smoking-induced COPD mice increased extremely remarkably.
# eosinophil = details: cited from earlier work
# macaque = details: 10 mg/Kg; cited from earlier work
# [7] = cited from earlier work
# histamine or PAF [8] = details: cited from earlier work
# histamine H1 receptors [9] = molecular target: histamine H1 receptors (Cavia porcellus, UniProt P31389); details: cited from earlier work
# Chain of histamine H1 receptors (Cavia porcellus, UniProt P31389) (P31389 whole entry): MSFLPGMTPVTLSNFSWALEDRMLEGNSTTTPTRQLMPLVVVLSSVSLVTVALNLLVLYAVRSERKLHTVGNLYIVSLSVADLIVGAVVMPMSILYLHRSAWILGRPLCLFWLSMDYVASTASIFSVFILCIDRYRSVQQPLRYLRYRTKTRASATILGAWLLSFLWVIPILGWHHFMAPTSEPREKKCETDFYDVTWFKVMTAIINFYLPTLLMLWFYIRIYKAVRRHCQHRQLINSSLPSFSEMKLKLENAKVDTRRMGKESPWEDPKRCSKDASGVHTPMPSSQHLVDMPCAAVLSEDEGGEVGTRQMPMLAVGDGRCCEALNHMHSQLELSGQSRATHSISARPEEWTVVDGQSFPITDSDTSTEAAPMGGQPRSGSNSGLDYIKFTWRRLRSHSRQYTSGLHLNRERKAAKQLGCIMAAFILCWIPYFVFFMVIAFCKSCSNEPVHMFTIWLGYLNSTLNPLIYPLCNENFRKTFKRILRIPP
# [10] = tested on: rats, Guinea pigs and dogs; details: cited from earlier work
# [11] = tested on: pulmonary fibrosis induced by Bleomycin of mammals; details: cited from earlier work
# [12] = tested on: smoking-induced COPD mice; test: amount of inflammatory cytokines in bronchoalveolar lavage fluid of smoking-induced COPD mice (ELISA); assay type: in vivo, C57BL/6 mice
# Description: Main agents and animals for experiments: Cigarettes used in the experiment, type 3R4F, were purchased from Tobacco Research Center, University of Kentucky, USA. C57BL/6 mice on level SPF used in the experiment (male, aged 6-8 weeks, 16-18 g) were purchased from Institute of Animal, Chinese academy of medical sciences. […] C57BL/6 mice were put in a smoke box and 5 cigarettes were inhaled without filter tip each time. The ratio of smoke to air was 1:6, and the whole flow rate of gas was 150 ml/min. Smoking experiment was conducted 4 times a day, 30 minutes for each time and last for 24 weeks. Therapy: grouping and feeding animal models with medicaments. The groups were as table 1: [table] The mice were dissected at neck and the […] exposed for intubation. […] The lavage solution was recycled and centrifuged at 1500 r for 10 minutes at 4° C. The supernate was recycled and kept at -20° C. for the test. 100 μl supernate was taken to conduct ELISA examination, and commercial available ELISA kit was used to test the amount of inflammatory cytokines. It can be seen from FIG. 2, compared with the sham-operation group, the content of IL-2 (FIG. 2A), IL-4 (FIG. 2C), IL-17 (FIG. 2D) increased remarkably in lungs of COPD mice.
# [13] = tested on: patients suffering seasonal or perennial allergic rhinitis; details: cited from earlier work
# mouse = details: 1000 mg/Kg; cited from earlier work
# mastocytes = details: cited from earlier work
# [14] = tested on: smoking-induced COPD mice; test: pathological evaluation (HE staining) of lung tissue of smoking-induced COPD mice; assay type: in vivo, C57BL/6 mice; details: 6 mg/kg i.g. once a day for 4 weeks
# Description: Main agents and animals for experiments: Cigarettes used in the experiment, type 3R4F, were purchased from Tobacco Research Center, University of Kentucky, USA. C57BL/6 mice on level SPF used in the experiment (male, aged 6-8 weeks, 16-18 g) were purchased from Institute of Animal, Chinese academy of medical sciences. […] C57BL/6 mice were put in a smoke box and 5 cigarettes were inhaled without filter tip each time. The ratio of smoke to air was 1:6, and the whole flow rate of gas was 150 ml/min. Smoking experiment was conducted 4 times a day, 30 minutes for each time and last for 24 weeks. Therapy: grouping and feeding animal models with medicaments. The groups were as table 1: [table] HE staining method is also named Hematoxylin-Eosin staining method. Hematoxylin dye liquor is alkaline, and mainly colors intranuclear chromatin and intracytoplasmic ribosome into bluish violet. Eosin is acidic dye, and mainly colors the components in cytoplasm and extracellular matrix. The lung tissues on the right lower lobe was cut, fixed by 4 wt % paraformaldehyde and then embedded by paraffin. The largest cross-section of the paraffin embedding lung tissue was stained by HE staining method, and the result was shown in FIG. 3.
# [15] = bronchoalveolar lavage fluid, 6 mg/kg i.g. once a day for 4 weeks after modeling
# [16] = 6 mg/Kg rupatadine treated group
# [17] = bronchoalveolar lavage fluid, ELISA, 6 mg/kg i.g. once a day for 4 weeks after modeling
molecule,measurement,setting,value
"IL-17A: IL-17A used in positive control group, purchased from R&D Company","lung tissue pathology, emphysema / structure of alveoli (HE staining)",[1],could effectively inhibit the further development of emphysema in mice
CCOC(=O)N1CCC(=C2c3ccc(Cl)cc3CCc3cccnc32)CC1 [loratadine],inhibition of blister,histamine or PAF [2],can only inhibit the blister induced by histamine
O=C(O)COCCN1CCN(C(c2ccccc2)c2ccc(Cl)cc2)CC1 (stereo not shown) [cetirizine],inhibition of blister,histamine or PAF [2],can only inhibit the blister induced by histamine
"Cc1cncc(CN2CCC(=C3c4ccc(Cl)cc4CCc4cccnc43)CC2)c1 [rupatadine, Rupatadine]",affinity to histamine H1 receptors,histamine H1 receptors [3],good affinity
same,selectivity to peripheral nervous receptors H1,histamine H1 receptors [3],highly selective
same,IC50,PAF [4]; platelet rich plasma (of rabbits),2.9 µM
same,IC50,PAF [4],0.2 µM
same,"lung tissue pathology, emphysema / structure of alveoli (HE staining)",[1],could effectively recover normal structure of alveoli
same,IC50,PAF [5],0.29 µM
same,amount of various inflammatory cells in bronchoalveolar lavage fluid compared to the model group,[6]; 6 mg/kg rupatadine treated group,could remarkably reduce the amount of various inflammatory cells
same,Basophil,[6]; [15],24.816 * 10^4 number/mL
same,Eosinophils,[6]; [15],34.692 * 10^4 number/mL
same,Lymphocyte,[6]; [15],32.694 * 10^5 number/mL
same,Monocyte,[6]; [15],49.504 * 10^5 number/mL
same,Neutrophile granulocyte,[6]; [15],33.864 * 10^5 number/mL
same,total hemameba,[6]; [15],13.69 * 10^6 number/mL
same,inhibition of chemotaxis of eosinophil,eosinophil,can inhibit
same,period of QTC and QRS,macaque,would not be extended
same,time for blood concentration to reach the peak,[7]; after intaking tablet,1 h
same,time for blood concentration to reach the peak,[7]; after intaking the capsule,1.5 h
same,half-life period,[7]; as stated in b6,5.9 h
same,half-life period,[7]; oral administration,12 h
same,inhibition of conjunctivitis,"histamine or PAF [8]; Guinea pig, induced by histamine or PAF",can inhibit conjunctivitis induced by histamine or PAF
same,"therapy effect of eye drops, times better than loratadine","histamine or PAF [8]; applied to eye drops, versus loratadine",10 times
same,anti-histamine activity compared with other medicaments,histamine H1 receptors [9]; in vitro,"stronger anti-histamine activity than terfenadine, loratadine, cetirizine, hydroxyzine, diphenhydramine; also recorded: the same as desloratadine"
same,IC50,"histamine H1 receptors [9]; read-out: anti-histamine activity IC50, ileum of Guinea pig in vitro",0.0035 µM
same,"anti-histamine activity, times stronger than loratadine",histamine H1 receptors [9]; versus loratadine,80 times
same,"anti-histamine activity, times stronger than other anti-histamine medicaments",histamine H1 receptors [9]; versus other anti-histamine medicaments,100 times
same,duration of effect,histamine or PAF [2]; after intake of rupatadine,24 h
same,time of best potency after intake,histamine or PAF [2]; after intake of rupatadine,4 h
same,inhibition of blister,histamine or PAF [2],can effectively inhibit blister
same,arrhythmia,[10],nor would it lead to arrhythmia
same,effect on pulmonary fibrosis induced by Bleomycin,[11]; in vivo,can convert the pulmonary fibrosis induced by Bleomycin
same,lethal rate caused by pulmonary fibrosis induced by Bleomycin,[11]; mammals,declining the lethal rate
same,content of IFN-γ,[12]; [16],did not affect the content of IFN-γ
same,content of various inflammatory cytokines in lungs of COPD mice,[12]; [16],could reduce the content of various inflammatory cytokines
same,IFN-γ,[12]; [17],26.28 pg/mL
same,IL-2,[12]; [17],6.71 pg/mL
same,IL-4,[12]; [17],6.54 pg/mL
same,IL-17,[12]; [17],35.53 pg/mL
same,alleviation of symptoms relative to placebo,"[13]; 2.5 mg, 5 mg, 10 mg, 20 mg per day, two weeks",can alleviate the symptoms more effectively than placebo
same,effects compared with loratadine,"[13]; 10 mg or 20 mg per day rupatadine vs 10 mg per day loratadine, two weeks, seasonal allergic rhinitis",better effects than intaking 10 mg per day loratadine
same,side effects on central nervous system,"[13]; 10 mg per day, compared with cetirizine",little side effects on central nervous system
same,therapeutic effects compared with ebastine,"[13]; 10 mg rupatadine vs 10 mg ebastine daily for 2 weeks, seasonal allergic rhinitis",better therapeutic effects than ebastine
same,alleviation of symptoms of seasonal allergic rhinitis compared with loratadine and ebastine,[13]; same dosage,can alleviate the symptoms of seasonal allergic rhinitis more than loratadine and ebastine
same,alleviation of nasal and optical symptoms relative to placebo,"[13]; seasonal allergic rhinitis patients, 10 mg and 20 mg per day, two weeks",much more alleviated
same,period of QTC and QRS,mouse,would not be extended
same,inhibition of degranulation of mastocytes,mastocytes,can inhibit
same,"lung tissue pathology, structure of alveoli (HE staining)",[14],could effectively recover normal structure of alveoli
